Reference: patent US20160244437A1, “SUBSTITUTED PHENYLALANINE DERIVATIVES” (BAYER PHARMA AKTIENGESELLSCHAFT, priority 2013, published 2016)
Structures can show the parent of a compound that is named as a salt.

Experiments:
human factor XIa = target: T1, human factor XIa (Homo sapiens, UniProt P03951); test: Measurement of FXIa inhibition (fluorogenic peptide substrate Boc-Glu(OBzl)-Ala-Arg-AMC); type: biochemical; settings: factor XIa from Kordia 0.45 nM, 15 min pre-incubation, 30 min at 22° C., fluorescence
T1 construct: purchased Kordia

human and animal plasma = test: Determination of anticoagulatory activity: activated partial thromboplastin time (aPTT) in plasma; settings: concentration of test substance which brings about a 1.5-fold extension of the aPTT; plasma in vitro, C.K. Prest kit
Method in brief: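 Citrated plasma (human, mouse, rat, rabbit, pig, dog) incubated with varying compound concentrations and cephalin/kaolin PTT reagent for 3 minutes at 37° C.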

T1 sequence (P03951 388-625 limits assumed): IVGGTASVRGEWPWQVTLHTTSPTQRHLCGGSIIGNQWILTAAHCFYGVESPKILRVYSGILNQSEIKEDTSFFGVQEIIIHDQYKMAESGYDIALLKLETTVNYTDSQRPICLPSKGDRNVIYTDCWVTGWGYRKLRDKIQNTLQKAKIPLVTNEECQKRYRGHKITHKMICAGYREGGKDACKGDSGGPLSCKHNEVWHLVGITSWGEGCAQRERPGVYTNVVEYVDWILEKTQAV
T1 sequence (P03951 19-387 partner limits assumed): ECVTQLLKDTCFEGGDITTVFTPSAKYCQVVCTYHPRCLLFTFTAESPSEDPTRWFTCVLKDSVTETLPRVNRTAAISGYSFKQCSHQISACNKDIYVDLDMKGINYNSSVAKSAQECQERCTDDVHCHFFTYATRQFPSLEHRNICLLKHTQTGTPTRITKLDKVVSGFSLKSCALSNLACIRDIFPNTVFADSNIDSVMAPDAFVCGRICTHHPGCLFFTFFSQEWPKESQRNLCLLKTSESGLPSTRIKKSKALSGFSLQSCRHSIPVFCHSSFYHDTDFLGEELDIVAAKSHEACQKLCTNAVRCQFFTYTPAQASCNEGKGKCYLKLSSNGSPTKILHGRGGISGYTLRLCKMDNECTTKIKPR

| SMILES | IC50 (human factor XIa) [nM] | aPTT (human and animal plasma) [µmol/L] |
| --- | --- | --- |
| Cc1ccc(S(=O)(=O)NCc2ccccc2)cc1-c1cccc(C[C@H](NC(=O)[C@H]2CC[C@H](CN)CC2)C(=O)Nc2ccc(-c3n[nH]c(=O)[nH]3)cc2)c1 [Example 13, trans-4-(Aminomethyl)-N-[(2S)-3-[5′-(benzylsulphamoyl)-2′-methylbiphenyl-3-yl]-1-oxo-1-{[4-(5-oxo-4,5-dihydro-1H-1,2,4-triazol-3-yl)phenyl]amino}propan-2-yl]cyclohexanecarboxamide hydrochloride] | 9.2 | 0.47 |
| CN1CCN(C(=O)c2cccc(-c3cccc(C[C@H](NC(=O)[C@H]4CC[C@H](CN)CC4)C(=O)Nc4ccc(-c5nnn[nH]5)cc4)c3)c2)CC1 [Example 31, trans-4-(Aminomethyl)-N-[(2S)-3-{3′-[(4-methylpiperazin-1-yl)carbonyl]biphenyl-3-yl}-1-oxo-1-{[4-(1H-tetrazol-5-yl)phenyl]amino}propan-2-yl]cyclohexanecarboxamide hydrochloride] | 7 | 0.36 |
| Cc1cc(S(=O)(=O)NC2CCNCC2)ccc1-c1cccc(C[C@H](NC(=O)[C@H]2CC[C@H](CN)CC2)C(=O)Nc2ccc(-c3nnc(Cl)[nH]3)cc2)c1 [Example 55, trans-4-(Aminomethyl)-N-{(2S)-1-{[4-(3-chloro-4H-1,2,4-triazol-5-yl)phenyl]amino}-3-[2′-methyl-4′-(piperidin-4-ylsulphamoyl)biphenyl-3-yl]-1-oxopropan-2-yl}cyclohexanecarboxamide hydrochloride] | 4.3 | 0.14 |
| NC[C@H]1CC[C@H](C(=O)N[C@@H](Cc2cccc(-c3cccnc3C(F)(F)F)c2)C(=O)Nc2ccc(-c3nnn[nH]3)cc2)CC1 [Example 81, N-alpha-{[trans-4-(Aminomethyl)cyclohexyl]carbonyl}-N-[4-(1H-tetrazol-5-yl)phenyl]-3-[2-(trifluoromethyl)pyridin-3-yl]-L-phenylalaninamide hydrochloride] | 2.5 | 0.3 |
| NC[C@H]1CC[C@H](C(=O)N[C@@H](Cc2cccc(-c3cccc(C(=O)N4CCOCC4)c3)c2)C(=O)Nc2ccc(-c3nnn[nH]3)cc2)CC1 [Example 47, trans-4-(Aminomethyl)-N-[(2S)-3-[3′-(morpholin-4-ylcarbonyl)biphenyl-3-yl]-1-oxo-1-{[4-(1H-tetrazol-5-yl)phenyl]amino}propan-2-yl]cyclohexanecarboxamide hydrochloride] | 5.2 | 0.34 |
| CN1CCN(C(=O)c2ccc(-c3cccc(C[C@H](NC(=O)[C@H]4CC[C@H](CN)CC4)C(=O)Nc4ccc(-c5nnc(Cl)[nH]5)cc4)c3)cc2)CC1 [Example 27, trans-4-(Aminomethyl)-N-[(2S)-1-{[4-(3-chloro-4H-1,2,4-triazol-5-yl)phenyl]amino}-3-{4′-[(4-methylpiperazin-1-yl)carbonyl]biphenyl-3-yl}-1-oxopropan-2-yl]cyclohexanecarboxamide hydrochloride] | 4.7 | 0.3 |
| COc1ccc(C[C@H](NC(=O)[C@H]2CC[C@H](CN)CC2)C(=O)Nc2ccc(-c3nn[nH]n3)cc2)cc1-c1ccc(C(=O)NC2CCNCC2)cc1C [Example 56, 5′-[(2S)-2-({[trans-4-(Aminomethyl)cyclohexyl]carbonyl}amino)-3-oxo-3-{[4-(2H-tetrazol-5-yl)phenyl]amino}propyl]-2′-methoxy-2-methyl-N-(piperidin-4-yl)biphenyl-4-carboxamide hydrochloride] | 15 | 0.28 |
| Cc1ccc(S(=O)(=O)NCc2ccccc2)cc1-c1cccc(C[C@H](NC(=O)[C@H]2CC[C@H](CN)CC2)C(=O)Nc2ccc(-c3nnn[nH]3)cc2)c1 [Example 1, trans-4-(Aminomethyl)-N-[(2S)-3-[5′-(benzylsulphamoyl)-2′-methylbiphenyl-3-yl]-1-oxo-1-{[4-(1H-tetrazol-5-yl)phenyl]amino}propan-2-yl]cyclohexanecarboxamide hydrochloride] | 0.4 | 0.1 |
| Cc1ccc(S(=O)(=O)NCc2ccccc2)cc1-c1cccc(C[C@H](NC(=O)[C@H]2CC[C@H](CN)CC2)C(=O)Nc2ccc3[nH]c(=O)[nH]c3c2)c1 [Example 12, trans-4-(Aminomethyl)-N-{(2S)-3-[5′-(benzylsulphamoyl)-2′-methylbiphenyl-3-yl]-1-oxo-1-[(2-oxo-2,3-dihydro-1H-benzimidazol-5-yl)amino]propan-2-yl}cyclohexanecarboxamide hydrochloride] | 3.2 | 0.3 |
| Cc1ccc(C[C@H](NC(=O)[C@H]2CC[C@H](CN)CC2)C(=O)Nc2ccc(-c3nnn[nH]3)cc2)cc1-c1ccc(C(=O)NC2CCNCC2)cc1 [Example 49, 5′-[(2S)-2-({[trans-4-(Aminomethyl)cyclohexyl]carbonyl}amino)-3-oxo-3-{[4-(1H-tetrazol-5-yl)phenyl]amino}propyl]-2′-methyl-N-(piperidin-4-yl)biphenyl-4-carboxamide hydrochloride] | 21 | 0.47 |
| Cc1ccc(S(=O)(=O)N(C)C)cc1-c1cccc(C[C@H](NC(=O)[C@H]2CC[C@H](CN)CC2)C(=O)Nc2ccc(-c3nnn[nH]3)cc2)c1 [Example 4, trans-4-(Aminomethyl)-N-[(2S)-3-[5′-(dimethylsulphamoyl)-2′-methylbiphenyl-3-yl]-1-oxo-1-{[4-(1H-tetrazol-5-yl)phenyl]amino}propan-2-yl]cyclohexanecarboxamide hydrochloride] | 1.5 | 0.21 |
| NC[C@H]1CC[C@H](C(=O)N[C@@H](Cc2cccc(-c3cccc(S(N)(=O)=O)c3)c2)C(=O)Nc2ccc(-c3nnn[nH]3)cc2)CC1 [Example 5, trans-4-(Aminomethyl)-N-[(2S)-1-oxo-3-(3′-sulphamoylbiphenyl-3-yl)-1-{[4-(1H-tetrazol-5-yl)phenyl]amino}propan-2-yl]cyclohexanecarboxamide hydrochloride] | 3.4 | 0.23 |
| COCCOCCOCCNC(=O)c1ccc(C)c(-c2cccc(C[C@H](NC(=O)[C@H]3CC[C@H](CN)CC3)C(=O)Nc3ccc(-c4nnn[nH]4)cc3)c2)c1 [Example 20, 3′-[(2S)-2-({[trans-4-(Aminomethyl)cyclohexyl]carbonyl}amino)-3-oxo-3-{[4-(1H-tetrazol-5-yl)phenyl]amino}propyl]-N-{2-[2-(2-methoxyethoxy)ethoxy]ethyl}-6-methylbiphenyl-3-carboxamide hydrochloride] | 1.8 | 0.24 |
| CC(=O)Nc1ncc(-c2cccc(C[C@H](NC(=O)[C@H]3CC[C@H](CN)CC3)C(=O)Nc3ccc(-c4nnn[nH]4)cc3)c2)c(C)n1 [Example 94, 3-[2-(Acetylamino)-4-methylpyrimidin-5-yl]-N-alpha-{[trans-4-(aminomethyl)cyclohexyl]-carbonyl}-N-[4-(1H-tetrazol-5-yl)phenyl]-L-phenylalaninamide hydrochloride] | 5.4 | 0.23 |
| COCCOCCOCCNC(=O)c1ccc(-c2cccc(C[C@H](NC(=O)[C@H]3CC[C@H](CN)CC3)C(=O)Nc3ccc(-c4nnn[nH]4)cc3)c2)c(C)c1 [Example 22, 3′-[(2S)-2-({[trans-4-(Aminomethyl)cyclohexyl]carbonyl}amino)-3-oxo-3-{[4-(1H-tetrazol-5-yl)phenyl]amino}propyl]-N-{2-[2-(2-methoxyethoxy)ethoxy]ethyl}-2-methylbiphenyl-4-carboxamide hydrochloride] | 2.4 | 0.34 |
| Cc1cc(N2CCOCC2)ncc1-c1cccc(C[C@H](NC(=O)[C@H]2CC[C@H](CN)CC2)C(=O)Nc2ccc(-c3nnc(Cl)[nH]3)cc2)c1 [Example 102, N-alpha-{[trans-4-(Aminomethyl)cyclohexyl]carbonyl}-N-[4-(3-chloro-4H-1,2,4-triazol-5-yl)phenyl]-3-[4-methyl-6-(morpholin-4-yl)pyridin-3-yl]-L-phenylalaninamide hydrochloride] | 2.2 | 0.43 |
| COc1ccc(C[C@H](NC(=O)[C@H]2CC[C@H](CN)CC2)C(=O)Nc2ccc(-c3nn[nH]n3)cc2)cc1-c1ccc(C(=O)N[C@@H]2CCNC2)cc1C [Example 57, 5′-[(2S)-2-({[trans-4-(Aminomethyl)cyclohexyl]carbonyl}amino)-3-oxo-3-{[4-(2H-tetrazol-5-yl)phenyl]amino}propyl]-2′-methoxy-2-methyl-N-[(3R)-pyrrolidin-3-yl]biphenyl-4-carboxamide hydrochloride] | 17 | 0.3 |
| Cc1nc(N)ncc1-c1cccc(C[C@H](NC(=O)[C@H]2CC[C@H](CN)CC2)C(=O)Nc2ccc(-c3nnn[nH]3)cc2)c1 [Example 95, N-alpha-{[trans-4-(Aminomethyl)cyclohexyl]carbonyl}-3-(2-amino-4-methylpyrimidin-5-yl)-N-[4-(1H-tetrazol-5-yl)phenyl]-L-phenylalaninamide hydrochloride] | 5.4 | 0.24 |
